{"source": "patent US6967096B2", "about": "“Thermostable peptidase” (California Institute of Technology, priority 1998, dated 2005)", "key": {"PfuCP [1]": {"target": "T1, PfuCP (Pyrococcus furiosus, UniProt Q8U3L0)", "T1 construct": "Pure PfuCP fractions (1391 U.mg^1; 11 mg), as determined by SDS-PAGE, were pooled and stored at −80° C; endogenous in cells; host or cells: Pyrococcus furiosus cell paste; enzyme purified in house by column chromatography", "T1 sequence (Q8U3L0 1-499)": "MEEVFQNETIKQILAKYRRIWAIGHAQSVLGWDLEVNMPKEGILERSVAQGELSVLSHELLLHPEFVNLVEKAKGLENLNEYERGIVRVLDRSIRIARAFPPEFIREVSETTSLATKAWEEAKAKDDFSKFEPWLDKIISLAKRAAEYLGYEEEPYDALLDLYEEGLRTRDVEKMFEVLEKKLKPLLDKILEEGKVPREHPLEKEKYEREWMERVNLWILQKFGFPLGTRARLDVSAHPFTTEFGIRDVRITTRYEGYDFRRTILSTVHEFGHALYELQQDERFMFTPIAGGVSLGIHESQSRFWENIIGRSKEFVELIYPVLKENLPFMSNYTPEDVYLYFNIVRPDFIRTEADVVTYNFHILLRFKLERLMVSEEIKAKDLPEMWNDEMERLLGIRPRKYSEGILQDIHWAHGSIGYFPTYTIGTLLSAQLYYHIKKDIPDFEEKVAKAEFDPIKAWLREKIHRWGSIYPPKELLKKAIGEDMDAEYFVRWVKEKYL", "assay_type": "biochemical", "experimental": "(§1) Assay of Enzyme Activity: Unless stated otherwise, enzymatic activity was assayed using 4 μl of enzyme sample in a total volume of 100 μl of 0.1 M KMES buffer (pH 6.5), starting with 2 mM ZAR in the presence of 0.4 mM CoCl2. Polypropylene microcentrifuge tubes were used. The enzyme and substrate were mixed quickly at room temperature and then brought to 80° C.; the equilibration time for the reaction mixture to reach 80° C. was considered negligible relative to the time scale of the assay. The reaction mixture was incubated at 80° C. in a water bath (Neslab EX-200 DD) for 10 minutes followed by quenching on ice. Subsequently, 750 μl of cadmium-ninhydrin reagent (21) was added and the samples were incubated for an additional 5 min at 80° C. for color development followed by quenching on ice. The absorbance was read at 500 nm (HP 8452A diode array spectrophotometer) with an unheated assay mixture containing Cd-ninhydrin reagent serving as the blank. Absorbances were compared with an arginine standard curve in order to calculate specific activities. Stock solutions of ZAR and CoCl2 were prepared in 0.1 M KMES buffer (pH 6.5), and when necessary, dilution of enzyme samples was done in 50 mM Tris-Cl buffer (pH 8.0). All pH adjustments were performed at room temperature. The free amine of the liberated arginine reacts with ninhydrin to yield the chromophore, Ruheman's purple (absorbance at 500 nm)."}, "[2]": {"system": "carboxypeptidase activity in crude extract", "assay": "Effect of DTT and EDTA on carboxypeptidase activity in crude extract", "assay_type": "biochemical, Pyrococcus furiosus", "conditions": "preliminary studies"}, "PfuCP [3]": {"target": "T1, PfuCP", "assay": "Hydrolysis of synthetic substrates by PfuCP", "assay_type": "biochemical", "conditions": "for hydrolysis by PfuCP at longer digestion time: digestion time 30 minutes, not detected under standard conditions; for hydrolysis by PfuCP: initial studies and control experiment", "experimental": "as §1\nOne unit of activity is defined as the amount of enzyme required to generate one μmole of arginine from ZAR in one minute at 80° C. Activity assays for other ZAX amino acid substrates (X=A, D, E, F, G, H, I, K, L, M, N, P, R, S, V, W, Y) were performed under otherwise identical assay conditions; appropriate amino acids were used to prepare standard curves. Spontaneous hydrolysis of the synthetic substrates was not observed at these temperatures. Protein concentrations were quantified by the Bradford assay using bovine serum albumin as the standard."}, "PfuCP [4]": {"target": "T1, PfuCP", "assay": "Re-activation by metal ions: divalent metal ion dependence of PfuCP activity", "assay_type": "biochemical", "conditions": "at 80° C.; linear reciprocal plot; read-out: binding constant (Kd) for Co^2+", "experimental": "as §1, with “All pH adjustments were performed at room temperature.” left out, “nm). […]” for “nm).”"}}, "note": "“Also recorded” adds a separate entry of the source. Read-outs that look alike come from different tables or passages of the source. Peptide text beside a SMILES is read from it. * marks the point of attachment. Cbz = O=C(OCc1ccccc1)*; Bz = O=C(c1ccccc1)*", "data": [{"compound": "O=S(=O)(F)Cc1ccccc1", "note": "[PMSF, Phenymethylsulfonyl fluoride]", "values": [{"measurement": "effect on PfuCP activity", "setting": "PfuCP [1]; 1 mM", "result": "no effect"}, {"measurement": "effect on the enzymatic activity of the polypeptide", "setting": "PfuCP [1]; concentration not given", "result": "no effect"}]}, {"compound": "O=C(O)CN(CCN(CC(=O)O)CC(=O)O)CC(=O)O", "note": "[EDTA, ethylenediaminetetraacetic acid]", "values": [{"measurement": "effect on PfuCP activity", "setting": "PfuCP [1]", "result": "not observed"}, {"measurement": "reversibility of inhibition", "setting": "PfuCP [1]", "result": "fully reversible"}, {"measurement": "effect on carboxypeptidase activity in crude extract", "setting": "[2]", "result": "completely abolished"}]}, {"compound": "C[C@H](NC(=O)OCc1ccccc1)C(=O)N[C@@H](CC(N)=O)C(=O)O", "note": "[ZAN] (Cbz-Ala-Asn-OH)", "values": [{"measurement": "hydrolysis by PfuCP at longer digestion time", "setting": "PfuCP [3]", "result": "hydrolyzed; also recorded: observed"}]}, {"compound": "CC(NC(=O)OCc1ccccc1)C(=O)NC(Cc1cnc[nH]1)C(=O)O", "note": "(stereo not drawn) [ZAH]", "values": [{"measurement": "hydrolysis by PfuCP at longer digestion time", "setting": "PfuCP [3]", "result": "hydrolyzed; also recorded: observed"}]}, {"compound": "[Co+2]", "note": "[Co^2+]", "values": [{"measurement": "Kd", "setting": "PfuCP [4]", "result": "13 ± 3", "unit": "µM"}]}, {"compound": "CC(NC(=O)OCc1ccccc1)C(=O)NC(CO)C(=O)O", "note": "(stereo not drawn) [ZAS]", "values": [{"measurement": "hydrolysis by PfuCP at longer digestion time", "setting": "PfuCP [3]", "result": "hydrolyzed; also recorded: observed"}]}, {"compound": "NC(N)=NCCC[C@H](NC(=O)CNC(=O)c1ccccc1)C(=O)O", "note": "[hippuryl-arginine, N-Benzoyl-Gly-Arg] (Bz-Gly-Arg-OH)", "values": [{"measurement": "hydrolysis by PfuCP", "setting": "PfuCP [3]", "result": "active"}]}, {"compound": "O=C(O)CNC(=O)c1ccccc1", "note": "[hippuric acid, Bz-Gly]", "values": [{"measurement": "hydrolysis by PfuCP", "setting": "PfuCP [3]", "result": "activity"}]}, {"compound": "O[C@H](CS)[C@H](O)CS", "note": "(racemic) [DTT, dithiothreitol]", "values": [{"measurement": "reversibility of inhibition", "setting": "PfuCP [1]", "result": "fully reversible"}, {"measurement": "effect on PfuCP activity", "setting": "PfuCP [1]; 2 mM", "result": "not observed"}, {"measurement": "effect on carboxypeptidase activity in crude extract", "setting": "[2]", "result": "completely abolished"}]}, {"compound": "C[C@H](NC(=O)OCc1ccccc1)C(=O)O", "note": "[ZA, N-Cbz-Ala]", "values": [{"measurement": "hydrolysis by PfuCP", "setting": "PfuCP [3]", "result": "no hydrolysis"}]}]}
